Experimental data: US11299518B2, “Fusion respiratory syncytial virus inhibitors and use thereof” (priority 2016, dated 2022)
Like-named read-outs stand apart in the source and are kept apart here. Bridge positions count the residues as written; N and C are the ends. Square brackets hold non-standard residues; d marks the D form. Peptide text beside a SMILES is read from it. R8 = C=CCCCCCC[C@@](C)(N)C(=O)O; S5 = C=CCCC[C@](C)(N)C(=O)O

What was measured:
RSV [1] = conditions: DeVincenzo et al., 2014; cited from earlier work
[2] = Proteolytic stability assay, trypsin; assay type: in vitro ADME; conditions: trypsin (isolated protease), pH 8; 50 mM Tris-HCl pH8, 25° C., LC-MS; read-out: t1/2 (min) Trypsin
Description: (§1) The compounds according to the invention are tested for their stability in a proteolytic stability assay as described below which is an important parameter to assess for the development of peptide therapeutics. Peptides of the invention 4bb, 4ca, 4a and their unstapled comparative peptide 4, as well as both SAH-RSVFBD isomers were treated with chymotrypsin and trypsin, and analysed by LC/MS to quantify the reaction products over time.
(§2) In vitro proteolytic degradation was measured via LC-MS using an Agilent Infinity 1280 UHPLC system coupled to an Agilent quadruple-time-of-flight (QTOF) 6530 with an Agilent Jet Stream electrospray ionisation (AJS ESI) source (all Agilent Technologies, Waldbronn, Germany). 5 μl of digested sample were injected onto a C18 column (Zorbax Eclipse Plus RRHD, 1.8 μm, 2.1*100 mm, Agilent Technologies, Waldbronn, Germany) equilibrated with solvent A and eluted with a flow rate of 0.4 ml/min over a 5-95% gradient of solvent B in 5 minutes, followed by 1.5 minutes at 95% and 0.5 minutes post-time where solvent A was 95% water, 5% acetonitrile with 0.2% formic acid and solvent B was 5% water, 95% acetonitrile with 0.2% formic acid. The AJS ESI source was operated with a capillary voltage of 4000V and a nozzle voltage of 600V with a drying gas temperature of 325° C. and flow rate of 10 l/min, nebulising gas pressure of 20 psi, and a sheath gas temperature of 300° C. and flow rate of 11l/min. Mass spectra were acquired in the positive ion mode from 100-3200 m/z at a rate of 1 scan per second in extended dynamic range (2 GHz) mode. The fragmentor, skimmer and octopole Radio Frequency voltages were set to 200, 60 and 750 V respectively. Data were acquired and analysed with Agilent MassHunter Workstation (version B.05).
(§3) Peptide digestion was performed as it follows: 10 μl of peptide at 0.29 mM in 50/50 acetonitrile/water were dissolved in 990 μl 100 mM Tris-HCl, pH 8.0 with 10 mM CaCl2. Following measurement of the undigested (to) sample, 10 μl of chymotrypsin at 50 μg/ml in 100 mM Tris-HCl, pH 8.0 with 10 mM CaCl2 were added and the sample was vortexed and placed immediately in the autosampler, set to 25° C. Trypsin digestion was performed as with chymotrypsin except that the buffer was in 50 mM Tris-HCl, pH8. Chymotrypsin and trypsin were purchased from Thermo Fisher Scientific.
(§4) The level of intact peptide was quantified by serial injection over time. Integration of the intact peptide compound chromatogram was performed using the Agilent Molecular Feature Extraction (MFE) algorithm. A plot of the intact peptide MFE peak area over time gave an exponential decay curve, from which the half-life was determined using MatLab […].

chymotrypsin = biological target: T1, chymotrypsin (Bos taurus, UniProt P00766); assay: Proteolytic stability assay, chymotrypsin; assay type: in vitro ADME
T1 construct: purchased Thermo Fisher Scientific
Description: as §1, §2, §3, §4

RSV [3] = conditions: Lambert et al., 1996; read-out: EC50 reported previously; cited from earlier work
[4] = system: recombinant green fluorescent protein (GFP)-expressing RSV virus (strain A2); assay: HRSV-eGFP inhibition assay (cellular viral fusion assay, A549 cells, flow cytometry); assay type: cell-based
Description: The inhibitory activity of the peptides of the invention was assessed in a cellular viral fusion assay as compared to comparative peptides as follows. A549 cells were infected with a recombinant green fluorescent protein (GFP)-expressing RSV virus (strain A2) obtained as described below and in Hallak et al., 2000, Virology, 271:264-275, and the inhibitory activity of the peptides was quantified by flow cytometry.
Following rapid thawing of the frozen eGFP encoding RSV virus at […], the virus was vortexed for 2 min, and pipetted up and down to break aggregates. Serial 4-fold dilutions of inhibitors were prepared in glass tubes and mixed with a volume of virus required to achieve approximately 50% of infection in 200 μl of media containing 2% of FCS. The resulting mixture was added to 24-well plates containing A549 cells. Cells were incubated for 2 hours at 37° C., the media was replaced, and cells were incubated for an additional 24 hours. Cells were treated with 300 μl of trypsin for 10 min at 37° C., and the detached cells were diluted in 1 ml of culture medium. Following centrifugation at 1′700 rpm, the pellet was resuspended in 300 μl of PBS+1% SBF (V/V) and GFP positive cells were counted by FACS analysis.

[5] = CD spectroscopy, percentage of helicity; assay type: physicochemical; conditions: CD at 222 nm, 10 mM phosphate buffer pH 7.5, 50 μM peptide, 25° C.
Outline: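 CD spectra were recorded at 25 °C on 50 μM peptide in 10 mM phosphate buffer, pH 7.5, from 180 to 260 nm, averaged over three scans and buffer-subtracted. Percent helicity was calculated from molar ellipticity at 222 nm, normalized to residue number and peptide concentration.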

Cc1cn2nc([C@@H]3CCCCN3C(=O)c3cc(Cl)ccc3NS(C)(=O)=O)cc2nc1N1CC[C@H](N)C1 [GS-5806]
EC50 (RSV [1]): 0.4 nM

Ac-EKINQSLAFIRKSDELLHNV-NH2 (N-terminus and C-terminus assumed) [Peptide 4, reference compound]
half-life [2]: 5 min
half-life at 2.9 µM (chymotrypsin; chymotrypsin (isolated protease), 100 mM Tris-HCl pH 8.0, 10 mM CaCl2, 25° C., LC-MS, read-out: t1/2 (min) Chymotrypsin): 4.5 min
time to full degradation (chymotrypsin; treated with chymotrypsin and trypsin): 10 min

Ac-YDPLVFPSDEFDASISQVNEKINQSLAFIRKSDEL-NH2 (N-terminus and C-terminus assumed) [Peptide T108]
EC50 (RSV [3]): 1480 nM

CC[C@H](C)[C@H](NC(=O)[C@H](Cc1ccccc1)NC(=O)[C@]1(C)CCCC=CCCC[C@](C)(NC(=O)[C@@H](NC(=O)[C@H](CCCCN)NC(=O)[C@H](CCC(=O)O)NC(C)=O)[C@@H](C)CC)C(=O)N[C@@H](CCC(N)=O)C(=O)N[C@@H](CO)C(=O)N[C@@H](CC(C)C)C(=O)N1)C(=O)N[C@@H](CCCNC(=N)N)C(=O)N[C@]1(C)CCCCCCC=CCCC[C@@](C)(C(=O)N[C@H](C(N)=O)C(C)C)NC(=O)[C@H](Cc2c[nH]cn2)NC(=O)[C@H](CC(C)C)NC(=O)[C@H](CC(C)C)NC(=O)[C@H](CCC(=O)O)NC(=O)[C@H](CC(=O)O)NC(=O)[C@H](CO)NC1=O [Peptide 4bf, EKI X500 QSL X504 FIR 8508 SDELLH X515V, reference compound] (Ac-EKI[S5]QSL[S5]FIR[R8]SDELLH[S5]V-NH2; staple 4-8, 12-19 (inferred))
inhibitory activity in cellular viral fusion assay [4]: inactive
% helicity [5]: >100%
